Where a name gives a salt, the structure may show the parent alone.

The target of experiment [1] is T1, NK-3 receptor (Cavia porcellus, UniProt P30098).
T1 construct: freshly collected guinea pig cerebral cortex; from tissue; host or cells: guinea pig cerebral cortex membranes
T1 sequence (P30098 1-440): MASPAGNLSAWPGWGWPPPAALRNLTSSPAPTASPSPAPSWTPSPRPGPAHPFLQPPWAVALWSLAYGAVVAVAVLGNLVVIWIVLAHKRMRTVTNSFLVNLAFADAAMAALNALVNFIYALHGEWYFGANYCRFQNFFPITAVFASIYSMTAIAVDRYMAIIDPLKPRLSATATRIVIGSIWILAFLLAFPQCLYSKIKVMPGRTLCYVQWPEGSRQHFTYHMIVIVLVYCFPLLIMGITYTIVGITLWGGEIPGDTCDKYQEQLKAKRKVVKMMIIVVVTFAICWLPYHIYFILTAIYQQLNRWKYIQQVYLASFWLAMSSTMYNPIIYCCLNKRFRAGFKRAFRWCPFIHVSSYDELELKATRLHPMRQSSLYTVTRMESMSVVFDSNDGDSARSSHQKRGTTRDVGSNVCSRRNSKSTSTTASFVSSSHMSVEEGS
Briefly: Antagonism of iodinated tachykinin binding to NK-3 receptor (125I-Bolton Hunter labeled Lys-4 eledoisin, guinea pig cerebral cortex membranes). Here is the method: The NK1 receptor affinity of proposed tachykinin antagonists was devaluated in guinea pig lungs (Keystone Biologicals, Cleveland, OH), affinity for the NK2 receptor evaluated in HSKR-1 cells (which are mouse 3T3 fibroblasts expressing the human jejunal NK2 receptor) and NK-3 receptor affinity was evaluated in freshly collected guinea pig cerebral cortex. Tissues or cells were homogenized with a Polytron in 15 volumes of 50 mM Tris-HCl buffer (pH 7.4, 4°C) and centrifuged. The pellet was resuspended in Tris-HCl buffer and was centrifuged; the pellet was washed twice by resuspension. The final pellet was resuspended at a concentration of 40 mg/ml for tissues (guinea pig lung and cerebral cortex) and 20 mg/ml for cells in incubation buffer and remained at room temperature for at least 15 min prior to use. Receptor binding was initiated by addition of 250 µl membrane preparation in duplicate to 0.1 nM of the following radioligands: ^125I-Bolton Hunter Lys-3 labeled substance P; ^125iodohistidyl-1-neurokinin A; and ^125I-Bolton Hunter labeled Lys-4 eledoisin in a final volume of 500 µl of buffer containing 50 mM Tris-HCl (pH 7.4 at room temperature), 0.1% bovine serum albumin, 2 mM MnCl2, 40 µg/ml bacitracin, 4 µg/ml leupeptin and chymostatin, 1 µM thiorphan and various doses of the putative tachykinin antagonists. Incubations were performed at room temperature for 90 min (NK1 receptor assays) or 2 hr (NK2 and NK3 receptor assays); binding was terminated by addition of 50 mM Tris-HCl buffer (pH 7.4, 4°C) and filtration under vacuum through GF/B filters presoaked with 0.1% polyethyleneimine (NK1 receptor assays) or 0.5% bovine serum albumin (NK2 and NK3 receptor assays). Filter bound radioactivity was quantitated in a gamma counter. Nonspecific binding was defined as binding in the presence of 1 µM substance P, neurokinin A, or eledoisin. Specific binding was calculated by subtracting nonspecific binding from total binding. Competition of iodinated SP, NKA, or eledoisin binding by test compounds or standards was expressed as a percentage of this maximum competition. IC50 values (concentration required to inhibit 50% of receptor binding) were generated for each of the test compounds by nonlinear regression using an iterative curve fitting program (GraphPAD Inplot, San Diego, CA).

Experiment [2] has as its system SP-induced plasma protein extravasation. The experiment is described as follows: Antagonism of SP-induced plasma protein extravasation in guinea pig trachea (Evans Blue dye). It counts as in vivo. The note with it: Figure 2; i.v.; result in words. Here is the method:
SP-induced protein leakage through postcapillary venules was assessed by measuring Evans Blue dye accumulation in guinea pig trachea. Animals were anesthetized with pentobarbital then injected with Evans Blue dye (20 mg/kg, i.v., prepared in 0.9% NaCl solution). One minute after dye administration, the antagonist was administered (i.v.) followed by SP (0.3 nmole/kg, i.v.) and, after 5 min, excess dye removed from the circulation by transcardiac perfusion with 50 ml 0.9% NaCl solution. The trachea and primary bronchi were removed, blotted dry and weighed. Dye quantitation was performed spectrophotometrically (620 nm) after extracting tissues in formamide for 24 hr at 50°C. Values were subtracted from background (dye only, no agonist). ED50 (dose of compound which inhibits SP-induced plasma protein extravasation by 50%) was calculated from linear regression analysis.
Values are mean (95% confidence limits). Compounds were injected intravenously 2 min prior to SP administration. ED50 values are based on at least 3 doses; at least 4 animals were used per dose.

The term IC50 denotes the concentration needed to halve the response being measured. High values mean weaker potency, low ones greater potency. Regarding `COc1cc(C(=O)N2CCC(CCN3CCC(C(N)=O)(c4ccccc4)CC3)(c3ccc(Cl)c(Cl)c3)C2)cc(OC)c1OC` (racemic) [Example 3A, 1-[2-[3-(3,4-dichloro-phenyl-3-yl)-1-(3,4,5-trimethoxy-benzoyl)-pyrrolidin-3-yl]-ethyl] -4-phenyl-piperidine-4-carboxylic acid amide hydrochloride], in experiment [1], the IC50 is 54.2 nM.
Consider `COc1cc(C(=O)N2CCC(CCN3CCC(C(N)=O)(c4ccccc4)CC3)(c3ccc(Cl)c(Cl)c3)C2)cc(OC)c1OC` (stereo not drawn) [Example 3, 1-[2-[3-(3,4-dichloro-phenyl)-1-(3,4,5-trimethoxy-benzoyl)-pyrrolidin-3-yl]-ethyl]-4-phenyl-piperidine-4-carboxylic acid amide], for which, in experiment [2], the “antagonism of SP-induced plasma protein extravasation in guinea pig trachea” value is given as “dose related antagonism”. Moreover, the “affinity for NK3 receptors” value in experiment [1] (result in words) is given as “high affinity”.

Values taken from patent EP0696280B1, “SUBSTITUTED PYRROLIDIN-3-YL-ALKYL-PIPERIDINES USEFUL AS TACHYKININ ANTAGONISTS” (MERRELL PHARMACEUTICALS INC., priority 1993, dated 1994).
